Experimental data taken from PubChem BioAssay AID248 (DTP/NCI, 2004).
Several values for one entry are separate records, joined by “and”; a condition that tells them apart may be missing. Equal values may be shown once. Toxic doses and inconclusive results are not listed. No stated cut-off is given here; in the data, active means T/C of 150% or more; inactive means T/C below 125%.

System: L1210 leukemia ip in BDF1 mice, survival T/C
Assay: NCI In Vivo Anticancer Drug Screen. Data for tumor model L1210 Leukemia (intraperitoneal) in B6D2F1 (BDF1) mice
Conditions: endpoint: mean survival time, higher = longer survival
Outline: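 Read-out is survival time, reported as the treated-group measurement over the vehicle-control measurement.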

[1] = dose: 50.0 mg/kg/injection, schedule: Q04DX003 (ip), vehicle: Klucel (hydroxypropylcellulose) (HPC)
[2] = dose: 100.0 mg/kg/injection, schedule: Q04DX003 (ip), vehicle: Klucel (hydroxypropylcellulose) (HPC)
[3] = dose: 100.0 mg/kg/injection, schedule: Q04DX003 (ip), vehicle: saline with Tween-80
[4] = dose: 200.0 mg/kg/injection, schedule: Q04DX003 (ip), vehicle: saline with Tween-80
[5] = dose: 400.0 mg/kg/injection, schedule: Q04DX003 (ip), vehicle: saline with Tween-80
[6] = dose: 100.0 mg/kg/injection, schedule: Q04DX002 (ip), vehicle: Klucel (hydroxypropylcellulose) (HPC)
[7] = dose: 200.0 mg/kg/injection, schedule: Q04DX002 (ip), vehicle: Klucel (hydroxypropylcellulose) (HPC)
[8] = dose: 400.0 mg/kg/injection, schedule: Q04DX002 (ip), vehicle: Klucel (hydroxypropylcellulose) (HPC)
[9] = dose: 100.0 mg/kg/injection, schedule: Q01DX001 (ip), vehicle: Klucel (hydroxypropylcellulose) (HPC)
[10] = dose: 200.0 mg/kg/injection, schedule: Q01DX001 (ip), vehicle: Klucel (hydroxypropylcellulose) (HPC)
[11] = dose: 200.0 mg/kg/injection, schedule: Q04DX003 (ip), vehicle: Klucel (hydroxypropylcellulose) (HPC)
[12] = dose: 400.0 mg/kg/injection, schedule: Q01DX001 (ip), vehicle: Klucel (hydroxypropylcellulose) (HPC)

Measured: T/C

CC(=O)n1cc(C=C2C(=O)CC(C)(C)CC2=O)c2ccccc21
inactive: dose: 37.5 mg/kg/injection, schedule: Q01DX009 (ip), vehicle: Klucel (hydroxypropylcellulose) (HPC) 89 % of control | dose: 75.0 mg/kg/injection, schedule: Q01DX009 (ip), vehicle: Klucel (hydroxypropylcellulose) (HPC) 95 % of control | dose: 150.0 mg/kg/injection, schedule: Q01DX009 (ip), vehicle: Klucel (hydroxypropylcellulose) (HPC) 98 % of control

O=S(=O)(F)c1cc(Cl)c(S)cc1Cl
inactive: dose: 25.0 mg/kg/injection, schedule: Q04DX003 (ip), vehicle: Klucel (hydroxypropylcellulose) (HPC) 96 % of control | [1] 96 % of control | [2] 98 % of control and 106 % of control

CCCCCOC(=O)CN(CC(=O)OCCCCC)c1ccc(C=O)cc1
inactive: [3] 103 % of control | [4] 100 % of control | [5] 92 % of control

CCC(CC)=NNS(=O)(=O)c1ccccc1
inactive: dose: 75.0 mg/kg/injection, schedule: Q01DX001 (ip), vehicle: saline 100 % of control | dose: 150.0 mg/kg/injection, schedule: Q01DX001 (ip), vehicle: saline 100 % of control | dose: 300.0 mg/kg/injection, schedule: Q01DX001 (ip), vehicle: saline 102 % of control

Cn1cnc([N+](=O)[O-])c1Sc1nc(N)nc2c1ncn2C1OC(CO)C(O)C1O (stereo not drawn)
inactive: dose: 0.94 mg/kg/injection, schedule: Q01DX Z (ip), vehicle: methylcellulose (MC) 121 % of control | dose: 1.88 mg/kg/injection, schedule: Q01DX Z (ip), vehicle: methylcellulose (MC) 121 % of control | dose: 3.75 mg/kg/injection, schedule: Q01DX Z (ip), vehicle: methylcellulose (MC) 116 % of control | dose: 7.5 mg/kg/injection, schedule: Q01DX Z (ip), vehicle: methylcellulose (MC) 116 % of control | dose: 15.0 mg/kg/injection, schedule: Q01DX Z (ip), vehicle: methylcellulose (MC) 103 % of control

C=C/C=N/Nc1ccc([N+](=O)[O-])cc1
inactive: [6] 98 % of control | [7] 92 % of control | [8] 95 % of control

Cc1ccc(NC(=O)Nc2cccc(C(F)(F)F)c2)cc1Cl
inactive: dose: 100.0 mg/kg/injection, schedule: Q01DX009 (ip), vehicle: gum acacia 92 % of control | dose: 200.0 mg/kg/injection, schedule: Q01DX009 (ip), vehicle: gum acacia 89 % of control | dose: 400.0 mg/kg/injection, schedule: Q01DX009 (ip), vehicle: gum acacia 91 % of control

Cc1cccc(N=Cc2cccc([N+](=O)[O-])c2)c1
inactive: [1] 98 % of control | [9] 100 % of control | [2] 98 % of control | [10] 94 % of control | [11] 98 % of control | [12] 92 % of control

CC(=O)CCC1(C)OC(=O)C(C)C2C1CCC1(C)C(=O)CCC21 (stereo not drawn)
inactive: dose: 50.0 mg/kg/injection, schedule: Q01DX001 (sc), vehicle: steriod suspending solution 101 % of control | dose: 100.0 mg/kg/injection, schedule: Q01DX001 (sc), vehicle: steriod suspending solution 103 % of control | dose: 200.0 mg/kg/injection, schedule: Q01DX001 (sc), vehicle: steriod suspending solution 113 % of control | dose: 400.0 mg/kg/injection, schedule: Q01DX001 (sc), vehicle: steriod suspending solution 101 % of control

O=C(C#Cc1ccccc1)N1CCCCC1
inactive: dose: 200.0 mg/kg/injection, schedule: Q04DX002 (ip), vehicle: saline with Tween-80 98 % of control | dose: 400.0 mg/kg/injection, schedule: Q04DX002 (ip), vehicle: saline with Tween-80 101 % of control

Cc1cccc(OC(=O)Nc2ccccc2C)c1
inactive: [6] 103 % of control | [7] 118 % of control | [8] 100 % of control

CN(C)c1ccc(/C=C(\C#N)c2nc3ccccc3[nH]2)cc1
inactive: [9] 96 % of control | [2] 91 % of control | [10] 99 % of control | [11] 94 % of control | [12] 96 % of control | dose: 400.0 mg/kg/injection, schedule: Q04DX003 (ip), vehicle: Klucel (hydroxypropylcellulose) (HPC) 93 % of control

Cc1ccc(NC(=O)C(Br)C(Br)c2ccccc2)cc1Cl (stereo not drawn)
inactive: dose: 100.0 mg/kg/injection, schedule: Q01DX009 (ip), vehicle: Klucel (hydroxypropylcellulose) (HPC) 96 % of control | dose: 200.0 mg/kg/injection, schedule: Q01DX009 (ip), vehicle: Klucel (hydroxypropylcellulose) (HPC) 92 % of control | dose: 400.0 mg/kg/injection, schedule: Q01DX009 (ip), vehicle: Klucel (hydroxypropylcellulose) (HPC) 88 % of control

Nc1ccccn1
inactive: dose: 12.5 mg/kg/injection, schedule: Q04DX002 (ip), vehicle: saline 100 % of control | dose: 25.0 mg/kg/injection, schedule: Q04DX002 (ip), vehicle: saline 89 % of control

NCCc1nc2ccccc2[nH]1
inactive: dose: 15.0 mg/kg/injection, schedule: Q01DX Z (ip), vehicle: saline 93 % of control | dose: 30.0 mg/kg/injection, schedule: Q01DX Z (ip), vehicle: saline 98 % of control | dose: 60.0 mg/kg/injection, schedule: Q01DX Z (ip), vehicle: saline 97 % of control | dose: 120.0 mg/kg/injection, schedule: Q01DX Z (ip), vehicle: saline 95 % of control | dose: 240.0 mg/kg/injection, schedule: Q01DX Z (ip), vehicle: saline 103 % of control | dose: 480.0 mg/kg/injection, schedule: Q01DX Z (ip), vehicle: saline 108 % of control

Cc1ccccc1-c1nc2ncnc(N)c2[nH]1
inactive: dose: 31.8 mg/kg/injection, schedule: Q01DX001 (ip), vehicle: Klucel (hydroxypropylcellulose) (HPC) 104 % of control | dose: 62.5 mg/kg/injection, schedule: Q01DX001 (ip), vehicle: Klucel (hydroxypropylcellulose) (HPC) 109 % of control | dose: 125.0 mg/kg/injection, schedule: Q01DX001 (ip), vehicle: Klucel (hydroxypropylcellulose) (HPC) 101 % of control

NC(CS(=O)c1ccc([N+](=O)[O-])cc1Cl)C(=O)O (stereo not drawn)
inactive: [3] 103 % of control | [4] 95 % of control | [5] 101 % of control

CN(C)c1ccc(/C=N/NC(=S)Nc2cccc3cccnc23)cc1
inactive: dose: 100.0 mg/kg/injection, schedule: Q01DX001 (ip), vehicle: saline 105 % of control | dose: 200.0 mg/kg/injection, schedule: Q01DX001 (ip), vehicle: saline 102 % of control | dose: 400.0 mg/kg/injection, schedule: Q01DX001 (ip), vehicle: saline 96 % of control

Nc1ncnc2c1ccn2C1CCC(CO)C1 (stereo not drawn)
inactive: dose: 50.0 mg/kg/injection, schedule: Q01DX001 (ip), vehicle: other 108 % of control | dose: 100.0 mg/kg/injection, schedule: Q01DX001 (ip), vehicle: other 103 % of control | dose: 200.0 mg/kg/injection, schedule: Q01DX001 (ip), vehicle: other 101 % of control

CCCCCCCCCCCC(=O)N1CCCCC1
inactive: dose: 100.0 mg/kg/injection, schedule: Q01DX001 (ip), vehicle: saline with Tween-80 101 % of control | dose: 200.0 mg/kg/injection, schedule: Q01DX001 (ip), vehicle: saline with Tween-80 97 % of control | dose: 400.0 mg/kg/injection, schedule: Q01DX001 (ip), vehicle: saline with Tween-80 89 % of control

O=C(Nc1cc([N+](=O)[O-])ccc1O)c1ccccc1Cl
inactive: dose: 100.0 mg/kg/injection, schedule: Q01DX009 (ip), vehicle: saline 101 % of control | dose: 200.0 mg/kg/injection, schedule: Q01DX009 (ip), vehicle: saline 97 % of control | dose: 400.0 mg/kg/injection, schedule: Q01DX009 (ip), vehicle: saline 98 % of control
